Assay results taken from patent publication US20250325531A1, “TREATMENT OF SYSTOLIC DYSFUNCTION” (MyoKardia, Inc., priority 2024, published 2025).

Test: Pharmacokinetics of single ascending doses (SAD Cohorts 1 and 2) in patients with stable HFrEF
Format: in vivo, human
Description: This example describes a study to establish preliminary safety and tolerability of single- and multiple-ascending oral doses of Compound I in ambulatory patients with stable heart failure with reduced ejection fraction (HFrEF). Key eligibility criteria included stable HFrEF of ischemic or nonischemic origin, treated with guideline-directed medical therapy (EF initial requirement during Screening was 20 to 45%, and was later changed by amendment to 15 to 35%). Subjects with active ischemia or severe or valvular heart disease were excluded. The study also aimed (1) to establish preliminary human PK of Compound I after single- and multiple-ascending oral doses of Compound I in patients with HFrEF; (2) to determine changes in left ventricular stroke volume (LVSV) derived from left ventricular outflow tract-velocity time integral (LVOT-VTI), left ventricular ejection fraction (LVEF) and change in left ventricular fractional shortening (LVFS) with Compound I after ascending single and multiple doses compared with Baseline and placebo as measured by transthoracic echocardiography (TTE); (3) to determine changes in systolic ejection time (SET) with Compound I after ascending single and multiple doses compared with Baseline and placebo as measured by TTE; and (4) to determine changes in pharmacodynamics (PD) dose/concentration effects (change in LVSV (derived from LVOT-VTI), LVEF, LVFS) with Compound I compared with Baseline and placebo after ascending single and multiple doses, as measured by TTE.
Part 1 was a randomized, crossover, DB, placebo-controlled, two-cohort, sequential ascending (oral) single-dose study in ambulatory patients with heart failure. All patients received placebo and 2 or 3 active doses of Compound I. Each patient underwent sequential, single-dose treatment events separated by no fewer than 5 days and no more than 14 days. Patients in Cohort 1 may also return for a fourth dosing period (open label) after the SRC reviews available data and recommends the dose. Patients enrolled prior to the implementation of Amendment 1 may be offered the opportunity to return for the open-label period. Patients in Cohort 2 participated in 2 to 4 dosing periods, based on SRC decision. Patients were randomized to one of the different dosing sequences outlined in FIG. 5A. Multiple patients could be dosed at the same time or during the same week depending on administrative issues, i.e., capacity and scheduling.
For each dosing period, patients were admitted to the clinical site on Day-1. Patients were assessed for absence of exclusion criteria (e.g., new lab abnormalities and/or conditions that indicate the patient is clinically unstable). They received Compound I or placebo in the morning of Day 1 followed by serial PK and PD assessments, as well as serial safety assessments. Patients were discharged on Day 3 (i.e., ˜48 hours following Day 1 dosing). An additional outpatient plasma PK sample was taken on the morning of Day 4 at 72 hours postdose.
Study medication consisted of Compound I 5 mg tablets, 25 mg tablets, 100 mg tablets, or matching placebo tablets. In Part 1 (SAD), Compound I or placebo was administered after an overnight fast (at least 6 hours), while in Part 2 (MAD), Compound I was administered after a 2 hour fast (Cohort A) or with food (Cohorts B, C, and D). The dose was ingested with a minimum of 240 mL of water, but more water was ingested as needed. The entire dose was administered over a period of up to 15 minutes. The time of dose used to determine future assessments was the time the last tablet was taken. In the cohorts for Part 2 (MAD), a BID regimen was used.
In Part 1 (SAD), patients fasted overnight (approximately 6 hours) through 4 hours postdose. With the exception of the water consumed with the dose, water could be ingested until approximately 1 hour prior to dosing and approximately 1 hour after dosing. If doses were split, subjects fasted 6 hours prior to the first half-dose. […]

Compound: Cn1cc(S(=O)(=O)[C@@](C)(F)C2CCN(C(=O)Nc3ccon3)CC2)c(C(F)F)n1 [Compound I, (R)-4-(1-((3-(difluoromethyl)-1-methyl-1H-pyrazol-4-yl)sulfonyl)-1-fluoroethyl)-N-(isoxazol-3-yl) piperidine-1-carboxamide]
- mean (SD) Cmax (350 mg single dose, fasted): 2760 (856) ng/mL
- AUC0-∞ (SAD Cohort 1, 175 mg (n = 8)): 53,800 hr × ng/mL
- AUC0-∞ (SAD Cohort 1, 350 mg (n = 8)): 103,000 hr × ng/mL
- Cmax (SAD Cohort 1, 350 mg (n = 8)): 2.76 µg/mL
- AUC0-∞ (SAD Cohort 1, 525 mg (n = 2)): 127,000 hr × ng/mL
- AUC0-24 (SAD Cohort 1, 4th dose 350 mg (n = 1)): 70,100 hr × ng/mL
